Results from patent US11116767B2, “3,5-disubstituted pyrazoles useful as checkpoint kinase 1 (Chk1) inhibitors, and their preparations and applications” (PHARMAENGINE, INC., priority 2016, dated 2021).
Where two headings read alike, the source gives them in different places.

Columns and labels:
[1] = test system: ChK1 phosphorylation (pChK1 S296) in HT-29 colon cancer cells; assay: Western blot analysis of ChK1 phosphorylation in HT-29 cells with SN-38; type: cell-based, Human; settings: HT-29 cells pre-incubated with Chk1 inhibitor 0.5 hours, then SN-38 (200 nM) 16 hours
[2] = test system: HT-29 colon cancer xenograft; type: in vivo
Experimental: (§1) Female Balb/c nude mice at 7-8 weeks of age (Body weights between 17-18g) were purchased from Hunan SJA Laboratory Animal Co., Ltd. HT-29 cells were cultured in DMEM culture medium containing 10% fetal bovine serum and LoVo cells were cultured in RPMI 1640 culture medium containing 10% fetal bovine serum. The cells were harvested and washed with serum free culture medium. Finally, the cells were suspended at a cell density of […] in serum free culture medium for implantation. 5 million cells per animal suspended in 0.1 ml serum free culture medium and 1.1 matrigel were injected into the right flank of the animals after a one, week acclimation period. When average tumor volume reached acceptable tumor size (100-200 mm^3) and shape, the animals were randomly assigned into treatment groups.
HT-29 colon cancer cells were implanted to establish the xenograft model in Balb/c nude mice. Compound 3 and LY2606368 were dissolved in 30% SEB-β-CD (Zhiyuan Bio-technology) with 1 molar equivalents of HCl. GDC-575 was suspended in 0.5% methyl cellulose/0.1% Tween 80 in water. […]. The animals well tolerated each treatment in the HT-29 colon cancer in nude mice model.

Chk1 = target: T1, Chk1 (Homo sapiens, UniProt O14757); assay: biochemical; settings: ADP-Glo; read-out: Chk1 in vitro enzyme activity (grade)
T1 construct: purchased BPS 40039
T1 sequence (O14757 1-476): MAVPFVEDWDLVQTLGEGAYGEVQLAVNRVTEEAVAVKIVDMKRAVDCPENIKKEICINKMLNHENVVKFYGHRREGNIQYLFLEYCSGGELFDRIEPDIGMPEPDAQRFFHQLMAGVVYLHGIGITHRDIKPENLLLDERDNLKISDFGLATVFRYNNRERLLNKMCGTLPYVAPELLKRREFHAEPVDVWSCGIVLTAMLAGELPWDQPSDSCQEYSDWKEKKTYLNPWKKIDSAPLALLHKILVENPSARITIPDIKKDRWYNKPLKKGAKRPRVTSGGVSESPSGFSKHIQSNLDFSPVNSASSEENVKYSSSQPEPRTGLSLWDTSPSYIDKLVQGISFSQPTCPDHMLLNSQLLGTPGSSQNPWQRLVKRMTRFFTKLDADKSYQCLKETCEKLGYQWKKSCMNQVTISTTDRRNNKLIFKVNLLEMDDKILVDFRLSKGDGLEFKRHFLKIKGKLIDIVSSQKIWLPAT

HT-29 = assay: Cancer cell growth inhibition assay (CellTiter-Glo), HT-29; type: cell-based, Human; settings: 72 hours, cellular ATP content, read-out: HT-29 anti cell proliferation activity (grade)
Experimental: (§2) Human cancer cell lines were purchased from American Type Culture Collection (Manassas, Va.). The trypsinized cells were diluted to required volume at densities of 44,000 cells/ml. 90 ul cell slurry was dispensed per well in 96-well flat-bottomed plates with the recommended culture medium. The cells were incubated for 24 hours at 37° C. in 5% CO2 under humidified condition. The cells were then incubated with compounds at various concentrations for 72 hours in culture medium supplemented with 0.5% (v/v) FBS. Growth inhibition was assessed by assay of cellular ATP content using CellTiter-Glo reagent to each well. Luminesce was read on Envision. The inhibition rate (%)=(Max signal compound signal)/(Max signal Min signal)×100.

Chk2 = target: T2, Chk2 (Homo sapiens, UniProt O96017); assay: biochemical; settings: ADP-Glo; read-out: Chk2 in vitro enzyme activity (grade)
T2 construct: purchased Carna 02-162
T2 sequence (O96017 whole entry): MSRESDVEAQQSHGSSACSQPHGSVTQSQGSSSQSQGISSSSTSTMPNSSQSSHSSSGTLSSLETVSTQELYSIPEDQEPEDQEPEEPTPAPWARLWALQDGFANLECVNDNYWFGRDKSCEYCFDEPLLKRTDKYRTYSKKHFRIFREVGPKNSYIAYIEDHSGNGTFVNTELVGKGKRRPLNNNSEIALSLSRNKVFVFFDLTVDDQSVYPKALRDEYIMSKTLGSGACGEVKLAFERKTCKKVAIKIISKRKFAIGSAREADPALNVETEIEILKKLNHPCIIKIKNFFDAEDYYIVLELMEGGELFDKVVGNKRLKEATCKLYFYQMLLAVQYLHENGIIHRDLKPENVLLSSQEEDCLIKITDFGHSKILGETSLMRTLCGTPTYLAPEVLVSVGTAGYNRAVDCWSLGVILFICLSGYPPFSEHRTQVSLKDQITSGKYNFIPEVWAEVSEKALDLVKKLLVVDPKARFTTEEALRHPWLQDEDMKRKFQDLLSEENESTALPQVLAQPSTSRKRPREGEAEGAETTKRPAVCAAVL

MDA-MB-231 = assay: Cancer cell growth inhibition assay (CellTiter-Glo), MDA-MB-231; type: cell-based, Human; settings: 72 hours, cellular ATP content, read-out: MDA-MB-231 anti cell proliferation activity (grade)
Experimental: as §2

[3] = Human liver S9 metabolic stability; type: in vitro ADME; settings: for Percentage Remaining %: 1 μM, 37° C.; for metabolic stability compared with LY2606368: human liver S9; for half-life at 1 μM: human liver S9, 1 μM
Experimental: Compounds (1 μM) were incubated with human liver S9 (from BD Gentest) at final liver microsomal protein concentration of 0.5 mg/mL for 0, 5, 15, 30, 45 min at 37° C. The remaining compounds in the reaction were measured by LC-MS/MS. The half-life (T½) 0.693/K (K is the rate constant from a plot of ln [concentration] vs. incubation time).

[4] = Pharmacokinetics study in rats, intravenous; type: in vivo, SD rats; settings: rat; for AUC(0-inf) / AUC(0-t) / clearance / MRT / half-life / Vd: male, SD, plasma; for AUC(0-inf) / AUC(0-t) / clearance / MRT / half-life / Vd / half-life and exposure compared with LY2606368: IV; for AUC(0-inf): read-out: AUC0-inf; for AUC(0-t): read-out: AUC0-t; for clearance: read-out: CL (converted); for MRT: read-out: MRT; for half-life: read-out: t½ (converted); for half-life and exposure compared with LY2606368: 10 mg/kg (LY2606368 5 mg/kg)
Experimental: Compounds were formulated in 30% SEB-β-CD (Zhiyuan Bio-technology) with 1 molar equivalents of HCl (pH adjusted to 3-5). Male SD rats (280-350 g) were purchased from Medical Laboratory Animal Center of Guangdong. Three rats were used for each PK study. […] At various time points after compound administration, approximately 0.2˜0.3 mL of blood was collected by cutting the end of tail into tubes containing K2-EDTA. The plasma was separated via centrifugation and stored at −80° C. A PE Sciex API-3000 LC-MS/MS system (Applied Biosystems, Inc.) was used to analyze compound concentrations in plasma.
PK studies of ChK1 inhibitors were conducted in rats after intravenous administration at 10 mg/kg. […]. […]

[5] = test system: LoVo colon cancer xenograft; assay: LoVo colon xenograft model; type: in vivo, Balb/c nude mice; settings: IV, twice a week
Experimental: as §1
Lovo colon cancer cells were implanted to establish the xenograft model in Balb/c nude mice. Compound 3 and LY2606368 were dissolved in 30% SEB-β-CD (Zhiyuan Bio-technology) with 1 molar equivalents of HCl. […]

HT-29 tumor xenograft = assay: HT-29 xenograft model, alone or in combination with CPT-11; type: in vivo, Balb/c nude mice; settings: for % T/C value: 15 mg/kg, IV
Experimental: as §1
In HT-29 tumor xenograft model, the animals were treated with a single compound, a ChK1 inhibitor or CPT-11, or a combination with CPT11. […] The animals well tolerated each treatment in the HT-29 colon cancer in nude mice model.

[6] = iv, 10 mg/kg, 10 mg/kg, read-out: Vd
[7] = iv, 10 mg/kg, 10 mg/kg, read-out: Vss

| Compound | IC50 (Chk1) | IC50 (Chk2) | melting point | IC50 (HT-29; Homo sapiens, HT-29) | IC50 (MDA-MB-231; Homo sapiens, MDA-MB-231) | Percentage Remaining % ([3]; 0 min) | Percentage Remaining % ([3]; 5 min) | Percentage Remaining % ([3]; 15 min) | Percentage Remaining % ([3]; 30 min) | Percentage Remaining % ([3]; 45 min) | metabolic stability compared with LY2606368 [3] | half-life at 1 μM [3] | AUC(0-inf) ([4]; 10 mg/kg) | AUC(0-t) ([4]; 10 mg/kg) | clearance ([4]; 10 mg/kg) | MRT ([4]; 10 mg/kg) | half-life ([4]; 10 mg/kg) | Vd [4, 6] | Vd [4, 7] | half-life and exposure compared with LY2606368 [4] | further results |
| --- | --- | --- | --- | --- | --- | --- | --- | --- | --- | --- | --- | --- | --- | --- | --- | --- | --- | --- | --- | --- | --- |
| N[C@@H]1CCCN(c2c(Br)cnc3[nH]cc(NC(=O)C4CC4)c23)C1 [GDC-0575, reference compound] | 1 to 10 nM | 50 to 100 nM |  |  |  |  |  |  |  |  |  |  |  |  |  |  |  |  |  |  | inhibition of Chk1 phosphorylation (FIG. 1) [1]: less potent than these compounds; T/C value ([2]; 25 mg/kg, po, 3 times/week): 50%; Tumor volume (X ± SD) ([2]; 25 mg/kg, po, 3 times/week): 515 ± 158 mm^3; Tumor weight (X ± SD) ([2]; 25 mg/kg, po, 3 times/week): 349 ± 94 mg; IC50 (HT-29): 100 to 500 nM; IC50 (MDA-MB-231): 100 to 500 nM |
| COc1cc(F)cc(OCC2(CN)CC2)c1-c1cc(Nc2cnc(C#N)cn2)n[nH]1 [Compound 13, 5-(5-(2-((1-(Aminomethyl)cyclopropyl)methoxy)-4-fluoro-6-methoxyphenyl)-1H-pyrazol-3-ylamino)pyrazine-2-carbonitrile] | ≤ 1 nM | 10 to 50 nM | 202 to 206 °C | ≤ 10 nM | 10 to 50 nM | 100.00% | 98.69% | 99.08% | 96.23% | 100.18% | more metabolic stable than LY2606368 | 5 h |  |  |  |  |  |  |  |  |  |
| COc1cc(Cl)cc(OCC2(CN)CC2)c1-c1cc(Nc2cnc(C#N)cn2)n[nH]1 [Compound 14, 5-(5-(2-((1-(Aminomethyl)cyclopropyl)methoxy)-4-chloro-6-methoxyphenyl)-1H-pyrazol-3-ylamino)pyrazine-2-carbonitrile] | ≤ 1 nM | 10 to 50 nM | 232 to 236 °C | 10 to 50 nM | 10 to 50 nM |  |  |  |  |  |  |  | 3120 ng·h/mL | 3100 ng·h/mL | 56.7 mL/min/kg | 4.1 h | 4 h | 19.2 L/kg | 13.9 L/kg | longer half-life and higher exposure than LY2606368 |  |
| COc1cc(Cl)cc(OCCCN)c1-c1cc(Nc2cnc(C#N)cn2)n[nH]1 [Compound 4, 5-(5-(2-(3-Aminopropoxy)-4-chloro-6-methoxyphenyl)-1H-pyrazol-3-ylamino)pyrazine-2-carbonitrile] | ≤ 1 nM | 50 to 100 nM | 198 to 203 °C | 10 to 50 nM | 10 to 50 nM | 100.00% | 97.57% | 94.83% | 88.45% | 82.67% | more metabolic stable than LY2606368 | 103 h | 2400 ng·h/mL | 2390 ng·h/mL | 78.3 mL/min/kg | 3.1 h | 3.3 h | 22.1 L/kg | 14.3 L/kg | longer half-life and higher exposure than LY2606368 |  |
| COc1cccc(OCCCN)c1-c1cc(Nc2cnc(C#N)cn2)n[nH]1 [LY-2606368, reference compound] |  |  |  | 10 to 50 nM | 10 to 50 nM |  |  |  |  |  |  | 1.47 h |  |  |  |  |  |  |  |  | T/C value ([2]; 15 mg/kg, iv, 2 times/week): 61%; Tumor volume (X ± SD) ([2]; 15 mg/kg, iv, 2 times/week): 615 ± 10 mm^3; Tumor weight (X ± SD) ([2]; 15 mg/kg, iv, 2 times/week): 390 ± 24 mg; T/C value ([5]; 15 mg/kg): −57%; tumor growth inhibition ([5]; LY2606368 15 mg/kg, Compound 3 10, 20, 40 mg/kg): significant tumor growth inhibition in a dose-dependent manner; AUC(0-inf) ([4]; 5 mg/kg): 637 ng·h/mL; AUC(0-t) ([4]; 5 mg/kg): 631 ng·h/mL; clearance ([4]; 5 mg/kg): 132 mL/min/kg; MRT ([4]; 5 mg/kg): 1.2 h; half-life ([4]; 5 mg/kg): 1.3 h; Vd ([4]; iv, 5 mg/kg, 5 mg/kg, read-out: Vd): 14.7 L/kg; Vd ([4]; iv, 5 mg/kg, 5 mg/kg, read-out: Vss): 9.7 L/kg; tolerability in rats ([4]; in vivo, iv, 10 mg/kg): did not tolerated; % T/C value (HT-29 tumor xenograft; twice a week plus CPT-11 (50 mg/kg, IV, once per week)): 0%; % T/C value (HT-29 tumor xenograft; alone, twice a week): 61%; effect on anti-tumor growth activity of CPT11 (HT-29 tumor xenograft; combination with CPT11): enhanced anti-tumor growth activity of CPT11 |
